Measured values as given in patent US20200323999A1 (The Board of Trustees of the Leland Stanford Junior …, priority 2019, published 2020).

How the values were obtained:
[1] = RF-acoustic signal characterization in tube phantom (433 MHz UHF-RF pulse); details: salts 10 wt %, NaOH 4 wt %; 1 mm tubes
Procedure: To determine the optimal composition of salt solutions for UHF-RF-acoustic contrast agents, five different salts were chosen, NaCl(aq), KI(aq), KCl(aq), MgCl2(aq), and CaCl2(aq) based on their ionic conductivity, solubility in water, and biocompatibility. NaOH(aq) was selected as a control because of its high ionic conductivity but low biocompatibility. […] Their UHF-RF-acoustic signals were measured using a prototype RF-acoustic tomography system with a nanosecond UHF-RF pulse at 433 MHz since this frequency is within the medical device radio-communications service band (MedRadio) (FIGS. 1B-1D). […] The generated RF-acoustic signals were collected by an ultrasound-linear-array transducer with a central frequency at 3.5 MHz that provides 1.2 mm imaging resolution on the transverse plane (FIGS. 1E-1F).
For comparison, a tube was included with only physiological saline (0.9 wt % of NaCl) to mimic RF-acoustic background of tissue. […]
A prototype RF-acoustic tomography imaging system (with main parts from Endra) was used to measure the RF-acoustic signal from the phantom and the mice. […] At each angle, 4095 pulses were recorded and averaged to improve the signal-to-noise ratio. […] The average energy density of a pulse at the target site was measured to be 1 mJ/cm^2, which is within the safety limit of tissue exposure. […] Acoustic signals were recorded by an ultrasound imaging system. […]

[2] = unit not given; cited from earlier work

Structure (SMILES): [Cl-].[Na+] [NaCl, sodium chloride]
- RF-acoustic signal of electrolyte solutions (comparison) [1]: weaker signals than KCl

Structure (SMILES): [Na+].[OH-] [NaOH(aq), sodium hydroxide, reference compound]
- RF-acoustic signal of electrolyte solutions (comparison) [1]: strongest RF-acoustic signal

Structure (SMILES): FC1(F)C(F)(F)C(F)(F)C2(F)C(F)(F)C(F)(F)C(F)(F)C(F)(F)C2(F)C1(F)F (centres unmarked) [Perfluorodecalin, perfluorodecalin]
- Water solubility [2]: 9.90 × 10^−9

Structure (SMILES): FC(F)(F)C(F)(F)C(F)(F)C(F)(F)C(F)(F)C(F)(F)F [Perfluorohexane, perfluorohexane]
- Water solubility [2]: 2.70 × 10^−7

Structure (SMILES): FC(F)(F)C(F)(F)C(F)(F)C(F)(F)C(F)(F)F [Perfluoropentane, perfluoropentane]
- Water solubility [2]: 4.00 × 10^−6
